Test results: paper PMC6748860, “High-resolution crystal structures of a myxobacterial phytochrome at cryo and room temperatures” (Structural Dynamics, 2019)

Key:
SaBphP2 PCM [1] = biological target: T1, SaBphP2 PCM (Allostigmatella aurantiaca, UniProt Q09E27); test: X-ray crystal structure ([…] Å, […] K; SFX […] Å, […] K); format: binding; details: covalent (thioether to Cys13); Pr state, dark; chromophore
T1 construct: gene STIAU_8420; photosensory core module PAS-GAF-PHY, residues 1-497, histidine kinase domain removed; homodimer; BV on Cys13

SaBphP2 PCM [2] = biological target: T2, SaBphP2 PCM (Allostigmatella aurantiaca, UniProt Q09E27, H275T); test: X-ray crystal structure ([…] Å, […] K); format: binding; details: covalent (thioether to Cys13); Pr state, dark; chromophore
T2 construct: gene STIAU_8420; photosensory core module PAS-GAF-PHY, residues 1-497, histidine kinase domain removed; homodimer; BV on Cys13
T2 sequence (Q09E27 entry or part of it H275T): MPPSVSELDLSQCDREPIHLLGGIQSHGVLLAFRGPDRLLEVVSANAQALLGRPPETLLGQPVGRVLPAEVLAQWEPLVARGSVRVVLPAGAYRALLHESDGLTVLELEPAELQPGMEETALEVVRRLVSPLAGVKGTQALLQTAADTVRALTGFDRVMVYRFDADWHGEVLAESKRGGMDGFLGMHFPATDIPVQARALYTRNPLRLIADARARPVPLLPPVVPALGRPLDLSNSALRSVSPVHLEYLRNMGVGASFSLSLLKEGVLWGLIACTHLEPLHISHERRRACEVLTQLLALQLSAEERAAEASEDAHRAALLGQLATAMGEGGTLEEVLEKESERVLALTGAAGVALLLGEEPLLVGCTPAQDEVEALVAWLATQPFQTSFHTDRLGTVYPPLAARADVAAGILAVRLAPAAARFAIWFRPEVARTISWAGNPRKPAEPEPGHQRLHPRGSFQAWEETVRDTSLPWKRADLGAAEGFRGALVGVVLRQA

T1 sequence (Q09E27 entry or part of it): as the sequence (Q09E27 entry or part of it H275T) above, with T275H counted along it

C=CC1=C(C)C(=Cc2[nH]c(C=C3N=C(C=C4NC(=O)C(C)=C4C=C)C(C)=C3CCC(=O)O)c(CCC(=O)O)c2C)NC1=O [biliverdin]
X-ray crystal structure (1.65 Å, 100 K; SFX 2.1 Å, 293 K) (SaBphP2 PCM [1]): The BV chromophore is bound to Cys13 close to the N-terminus | X-ray crystal structure (2.2 Å, 100 K) (SaBphP2 PCM [2]): The cryostructure of the His275Thr mutant is essentially identical to that of the wild-type
